Laboratory results as given in ChEMBL document CHEMBL1201862, “PubChem BioAssay data set” (2004).
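Dose response: 5 concentrations. Exposure: 48 h. Format: 96-well plates. Endpoint: linear interpolation; highest concentration if not reached. The concentration for 50% growth inhibition is given as GI50.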 Calls of active or inactive are those of the source. No stated cut-off is given here; in the data, active = GI50 up to about 1.1 µM and inactive = higher.

Experiments:
Experiment in all cases: inhibition of tumour cell growth, NCI panel, 48 h
[1] = system: SNB-19
[2] = system: HL-60
[3] = system: A549
[4] = system: IGROV-1
[5] = system: KM12
[6] = system: NCI-H460
[7] = system: NCI/ADR-RES
[8] = system: DU-145
[9] = system: M14
[10] = system: OVCAR-8
[11] = system: HT-29
[12] = system: OVCAR-5
[13] = system: SK-MEL-2
[14] = system: SR
[15] = system: PC-3
[16] = system: SK-OV-3
[17] = system: A498
[18] = system: HCT-116
[19] = system: OVCAR-3
[20] = system: OVCAR-4

Measured: GI50

Cc1c2oc(=O)c(C#N)cc2c2ccccn12
inactive: [1] > 100 µM | [2] > 100 µM | [3] > 100 µM | [4] > 100 µM | [5] 27.6 µM | [6] 32.5 µM | [7] > 100 µM | [8] > 100 µM | [9] 70.1 µM | [10] > 100 µM | [11] > 100 µM | [12] > 100 µM | [13] > 100 µM | [14] > 100 µM | [15] > 100 µM | [16] > 100 µM | [17] > 100 µM | [18] 37.6 µM | [19] 17.3 µM | [20] > 100 µM

SCc1ccc(-c2ccc(CS)cc2)cc1
inactive: [1] 18.3 µM | [2] 3.25 µM | [3] 20.5 µM | [4] 13.5 µM | [5] 3.11 µM | [6] 10.4 µM | [7] 7.16 µM | [8] > 10 µM | [9] 14.3 µM | [10] 21.3 µM | [11] 26.9 µM | [12] 12.3 µM | [13] 19.7 µM | [14] 2.42 µM | [15] 17.4 µM | [16] 17.6 µM | [17] 36.5 µM | [18] 7.55 µM | [19] 16.4 µM | [20] 6.38 µM

CC1(C)OCC(C2OC(C)(C)OC2[C@H]2O[C@@]3(O)[C@H]4[C@H](C=CC[C@@H]42)[C@@H](OCc2ccccc2)[C@H](OCc2ccccc2)[C@H]3OCc2ccccc2)O1 (stereo not given in full)
inactive: [1] 63.7 µM | [2] 14.4 µM | [3] 24.8 µM | [4] 71 µM | [5] 47.4 µM | [6] 17.9 µM | [7] 28.6 µM | [8] 61 µM | [9] 59.3 µM | [10] 22.7 µM | [11] 17.9 µM | [12] 54.3 µM | [13] 20.7 µM | [14] 11 µM | [15] 31 µM | [16] > 100 µM | [17] > 100 µM | [18] 16.1 µM | [19] 52.2 µM | [20] 41 µM

[N-]=[N+]=Nc1c([N+](=O)[O-])c(=O)n2c3c(cccc13)CCC2
inactive: [1] > 67.8 µM | [2] 2.2 µM | [3] 35.9 µM | [4] 20.8 µM | [5] 17 µM | [6] 17.8 µM | [7] 20.6 µM | [8] 16.9 µM | [9] 10.8 µM | [10] 17.3 µM | [11] 15 µM | [12] 16.4 µM | [13] 16.6 µM | [14] 2.27 µM | [15] 16.9 µM | [16] > 100 µM | [17] 27 µM | [18] 15.6 µM | [19] 17 µM | [20] 13.7 µM
